What was measured:
[1] = tested on: mice; experiment: in vivo; details: acute
Description: (§1) LD50 values of the compounds of this invention were determined after intravenous injection or intraperitoneal administration to mice for acute toxicity test. The studies were carried out using male and female NMRI mice (n=3/group) having a body weight between 19-21 g.

[2] = tested on: ethanol-induced gastric ulcer in rats; experiment: Protective effect on ethanol-induced gastric ulcer in rats; type: in vivo, male Sprague-Dawley rats; details: 10 mg/kg po; for Ulcer index: mean ± S.E.; for inhibition in vivo at 10 mg/kg: Rattus norvegicus
Description: 1.2 Protective Effect on Ethanol-Induced Gastric Ulcer in Rats
Male Sprague-Dawley rats weighing 250-300 g were used in groups of 5-24. After fasting overnight, the animals were given orally the compounds. Thirty minutes later they received absolute ethanol (1 ml/body) orally and were sacrificed after 60 minutes. The stomach was removed and examined for erosions. The ulcer index was obtained in the same way as under 1.1.

[3] = tested on: stress-induced gastric ulcer in rats; experiment: Protective effect on gastric ulcer induced by restraint plus water-immersion stress in rats; type: in vivo, male Sprague-Dawley rats; details: 10 mg/kg po; for Ulcer index: mean ± S.E.; for inhibition in vivo at 10 mg/kg: Rattus norvegicus, stress-induced ulcer
Description: 1.1 Protective Effect on Gastric Ulcer Induced by Restraint Plus Water-Immersion Stress in Rats
Male Sprague-Dawley rats weighing 250-300 g were used in groups of 5-34. The animals were given the compounds by the oral route after fasting overnight. Immediately, under light ether anesthesia they were placed in a restraint box and immersed in water at 20° C. for 6 or 7 hours. Then the animals were sacrificed, and their stomachs were isolated, inflated with 4 ml of 1% formalin for 10 minutes, opened along the greater curvature, and examined for the presence of gastric erosions. The longest axis of each erosion induced on the glandular section of the stomach was measured, and the sum of the lengths was defined as an ulcer index.

[4] = in vivo; details: mouse, in vivo, mice
Description: as §1

[5] = tested on: peptic ulcer disease; details: Ter. Arkh. 57, 52-55, 1985; cited from earlier work
[6] = series with control (distilled water) 164.7 ± 19.4 mm
[7] = series with control 164.7 ± 19.4 mm
[8] = series with control (distilled water) 19.7 ± 2.9 mm
[9] = series with control 19.7 ± 2.9 mm
[10] = series with control (distilled water) 111.6 ± 10.4 mm
[11] = series with control 111.6 ± 10.4 mm
[12] = series with control (distilled water) 26.2 ± 1.6 mm
[13] = series with control 26.2 ± 1.6 mm
[14] = ip, intraperitoneal administration, 7 days (footnote b)
[15] = series with control (10% EtOH) 118.8 ± 9.6 mm

Structure (SMILES) | Ulcer index [3, 8] [mm] | inhibition in vivo at 10 mg/kg [3, 9] [%] | Ulcer index [3, 12] [mm] | inhibition in vivo at 10 mg/kg [3, 13] [%] | LD50 at 168 h ([4]; intravenous, n=3/group, 7 days) [mg/kg] | also measured
CCCn1c(=O)c2c(ncn2CCCCC(O)CO)n(CC)c1=O (stereo not shown) [Compound 1] | 2.7 ± 0.9 | 86.3 | – | – | – | toxicity (in words) [1]: low toxicity; Ulcer index [2, 6]: 6.7 ± 2.1 mm; inhibition in vivo at 10 mg/kg [2, 7]: 95.8%
CCn1c(=O)n(C(C)C)c(=O)c2c1ncn2CCCCC(O)CO (stereo not shown) [Compound 2] | – | – | 11.5 ± 2.1 | 56 | – | Ulcer index [2, 10]: 6.7 ± 2.8 mm; inhibition in vivo at 10 mg/kg [2, 11]: 94%
CCCCn1c(=O)c2c(ncn2CCCCC(O)CO)n(CC)c1=O (stereo not shown) [Compound 3] | 6.0 ± 1.9 | 69.6 | – | – | – | Ulcer index [2, 6]: 5.3 ± 3.3 mm; inhibition in vivo at 10 mg/kg [2, 7]: 96.8%
CCCCCn1c(=O)c2c(ncn2CCCCC(O)CO)n(CC)c1=O (stereo not shown) [Compound 4] | – | – | 9.2 ± 1.9 | 64.7 | > 200 | Ulcer index [2, 10]: 15.6 ± 5.8 mm; inhibition in vivo at 10 mg/kg [2, 11]: 86%
CCn1c(=O)n(CC(C)C)c(=O)c2c1ncn2CCCCC(O)CO (stereo not shown) [Compound 5] | – | – | 7.1 ± 1.8 | 72.9 | > 200 | –
C=CCn1c(=O)c2c(ncn2CCCCC(O)CO)n(CC)c1=O (stereo not shown) [Compound 6, 1-Allyl-3-ethyl-7-(5,6-dihydroxyhexyl)-xanthine] | – | – | 7.0 ± 0.9 | 73.2 | > 200 | Ulcer index [2, 10]: 10.7 ± 1.4 mm; inhibition in vivo at 10 mg/kg [2, 11]: 90.4%
CCn1c(=O)n(CC(C)=O)c(=O)c2c1ncn2CCCCC(O)CO (stereo not shown) [Compound 7, 3-Ethyl-7-(5,6-dihydroxyhexyl)-1-(2-oxopropyl)-xanthine] | – | – | 20.4 ± 4.1 | 21.9 | > 200 | –
CCn1c(=O)n(CC(C)O)c(=O)c2c1ncn2CCCCC(O)CO (stereo not shown) [Compound 8, 3-Ethyl-7-(5,6-dihydroxyhexyl)-1-(2-hydroxypropyl)-xanthine] | – | – | 20.7 ± 4.6 | 21 | > 200 | –
CCCn1c(=O)n(CCCCC(C)=O)c(=O)c2c1ncn2CCCCC(O)CO (stereo not shown) [Compound 9, 7-(5,6-Dihydroxyhexyl)-1-(5-oxohexyl)-3-n-propylxanthine] | – | – | 20.2 ± 5.8 | 22.9 | > 200 | –
CCCCn1c(=O)c2c(ncn2CCCCC(O)CO)n(C)c1=O (stereo not shown) [Compound 10] | – | – | 4.5 ± 1.4 | 82.8 | – | Ulcer index [2, 10]: 1.1 ± 0.5 mm; inhibition in vivo at 10 mg/kg [2, 11]: 99%
CC(=O)CCCCn1c(=O)c2c(ncn2CCCCC(O)CO)n(C)c1=O (stereo not shown) [Compound 11, 7-(5,6-dihydroxyhexyl)-3-methyl-1-(5-oxohexyl)-xanthine] | – | – | 13.8 ± 1.7 | 47.4 | > 200 | –
CCCn1c(=O)c2c(ncn2CCCC(O)C(C)O)n(CC)c1=O (stereo not shown) [Compound 12] | – | – | 4.3 ± 0.8 | 83.5 | > 200 | –
CCCn1c(=O)c2c(ncn2CCCCCC(O)CO)n(CC)c1=O (stereo not shown) [Compound 13] | – | – | 8.9 ± 2.1 | 66 | 200 to 400 | Ulcer index [2, 10]: 5.0 ± 2.2 mm; inhibition in vivo at 10 mg/kg [2, 11]: 95.5%
CCCn1cnc2c1c(=O)n(CCCCC(O)CO)c(=O)n2CC (stereo not shown) [Compound 14] | – | – | 10.4 ± 1.9 | 60.2 | – | LD50 at 168 h [4, 14]: 300 to 600 mg/kg
CCCn1c(=O)c2c(ncn2CCCCC(C)O)n(C)c1=O (stereo not shown) [Compound 15] | 2.2 ± 0.9 | 88.9 | – | – | – | LD50 at 168 h ([4]; intravenous, method of LitchfieldWilcoxon using 10 mice/dose (footnote a)): 123 mg/kg
CCCCn1c(=O)c2c(ncn2CCCCC(C)O)n(C)c1=O (stereo not shown) [Compound 16] | – | – | 10.6 ± 0.9 | 59.4 | 100 to 200 | Ulcer index [2, 10]: 4.1 ± 0.8 mm; inhibition in vivo at 10 mg/kg [2, 11]: 96.3%
CCCCCCn1c(=O)c2c(ncn2CCCCC(C)O)n(C)c1=O (stereo not shown) [Compound 17] | – | – | – | – | – | LD50 at 168 h [4, 14]: 500 to 1000 mg/kg; Ulcer index [2, 15]: 13.4 ± 5.2 mm; inhibition in vivo at 10 mg/kg [2, 15]: 88.7%
C=CCn1c(=O)c2c(ncn2CCCCC(C)O)n(C)c1=O (stereo not shown) [Compound 18, 1-Allyl-7-(5-hydroxyhexyl)-3-methylxanthine] | 15.3 ± 2.1 | 22.3 | – | – | – | LD50 at 168 h [4, 14]: 250 to 500 mg/kg
CC(=O)Cn1c(=O)c2c(ncn2CCCCC(C)O)n(C)c1=O (stereo not shown) [Compound 19, 7-(5-Hydroxyhexyl)-3-methyl-1-(2-oxopropyl)-xanthine] | – | – | 15.0 ± 2.4 | 42.8 | > 200 | –
CC(=O)CCCCn1c(=O)c2c(ncn2CC(C)O)n(C)c1=O (stereo not shown) [Compound 20] | 6.9 ± 2.1 | 65 | – | – | > 200 | –
C=CCn1cnc2c1c(=O)n(CCCCC(C)O)c(=O)n2C (stereo not shown) [Compound 21, 7-allyl-1-(5-hydroxyhexyl)-3-methylxanthine] | – | – | 13.4 ± 3.2 | 48.9 | 100 to 200 | –
CCn1c(=O)c2c(ncn2CCCCC(C)=O)n(C)c1=O [Compound 22] | 8.0 ± 4.2 | 59 | – | – | – | LD50 at 168 h [4, 14]: 200 to 400 mg/kg
CC(=O)Cn1cnc2c1c(=O)n(CCCCC(C)O)c(=O)n2C (stereo not shown) [Compound 23, 1-(5-Hydroxyhexyl)-3-methyl-7-(2-oxopropyl)-xanthine] | 15.8 ± 4.6 | 19.8 | – | – | > 200 | –
CC(=O)CCCCn1cnc2c1c(=O)n(CC(C)=O)c(=O)n2C [Compound 24, 3-Methyl-7-(5-oxohexyl)-1-(2-oxopropyl)-xanthine] | 10.3 ± 3.5 | 47.7 | – | – | > 200 | –
CC(=O)CCCCn1c(=O)c2c(ncn2C)n(C)c1=O [Compound 25, 1,2,3,6-tetrahydro-3,7-dimethyl-1-(5-oxohexyl)-purine-2,6-dione, reference compound] | – | 12.7 | – | – | – | antiulcer effects (in words) [5]: antiulcer effects; inhibition in vivo at 10 mg/kg [2, 7]: 78.8%
